# Paper PMC3170910, “Screening of Supports for the Immobilization of β-Glucosidase” (Enzyme Research, 2011)
# System: T1, β-glucosidase
# T1 construct: gene beta-D-glucoside glucohydrolase; not purified to one protein, isoenzyme not defined
# Test: p-nitrophenol release at […] nm; nonlinear fit (Solver)
# Assay type: biochemical, Aspergillus sp.
# Settings: free enzyme, partially purified extract; acetate buffer, optimal pH (4.5) and temperature (65 °C optimum)
compound,measurement,value
O=[N+]([O-])c1ccc(O[C@@H]2O[C@H](CO)[C@@H](O)[C@H](O)[C@H]2O)cc1 [4-Nitrophenyl-β-D-glucopyranoside],Km,1600 µM
